IC50 data for 23 molecules are collected here from patent publication US20240166635A1, “AMINOHETEROARYL KINASE INHIBITORS” (Anrui Biomedical Technology (Guangzhou) Co.,Ltd., priority 2020, published 2024).

A value given as a limit tells only on which side of the number the result lay.

Holding throughout (type): biochemical
One test concerns the target CDK2/CyclinE1 (Homo sapiens (Human), UniProt P24941). The test can be described thus: CDK2/CyclinE1 kinase inhibitory activity (Caliper mobility shift). As to conditions: read-out: CDK2/Cyclin El IC50.
The target in another test is CDK1/CyclinB (Homo sapiens (Human), UniProt P06493). The test can be described thus: CDK1/CyclinB kinase inhibitory activity (Caliper mobility shift). As to conditions: read-out: CDK1/Cyclin B1 IC50.
For a further test, the target named is CDK4/Cyclin D1 (Homo sapiens (Human), UniProt P11802). The test can be described thus: CDK4/CyclinD1 kinase inhibitory activity (Caliper mobility shift).
For a further test, the target named is CDK6/CyclinD1 (Homo sapiens (Human), UniProt Q00534). Kind of test: CDK6/CyclinD1 kinase inhibitory activity (Caliper mobility shift). The conditions noted are these: read-out: CDK6/Cyclin D1 IC50.
The next test concerns the target CDK7/CyclinH/MAT1 (Homo sapiens (Human), UniProt P50613). Kind of test: CDK7/CyclinH/MAT1 kinase inhibitory activity (Caliper mobility shift).
A further test has as its target CDK9/CyclinT1 (Homo sapiens (Human), UniProt P50750). Kind of test: CDK9/CyclinT1 kinase inhibitory activity (Caliper mobility shift). As to conditions: read-out: CDK9/Cyclin T1 IC50.

CDK4/Cyclin D1, sequence (P11802 whole entry): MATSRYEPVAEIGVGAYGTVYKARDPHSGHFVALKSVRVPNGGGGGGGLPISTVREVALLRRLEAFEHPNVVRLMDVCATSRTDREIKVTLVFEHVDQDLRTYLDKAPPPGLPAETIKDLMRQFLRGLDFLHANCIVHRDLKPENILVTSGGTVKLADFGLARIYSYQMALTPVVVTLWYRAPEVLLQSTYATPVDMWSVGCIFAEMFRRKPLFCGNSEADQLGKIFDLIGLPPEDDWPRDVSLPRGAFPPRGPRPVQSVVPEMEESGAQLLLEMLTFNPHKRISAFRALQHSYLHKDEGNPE
CDK4/Cyclin D1, sequence (P24385 whole entry partner): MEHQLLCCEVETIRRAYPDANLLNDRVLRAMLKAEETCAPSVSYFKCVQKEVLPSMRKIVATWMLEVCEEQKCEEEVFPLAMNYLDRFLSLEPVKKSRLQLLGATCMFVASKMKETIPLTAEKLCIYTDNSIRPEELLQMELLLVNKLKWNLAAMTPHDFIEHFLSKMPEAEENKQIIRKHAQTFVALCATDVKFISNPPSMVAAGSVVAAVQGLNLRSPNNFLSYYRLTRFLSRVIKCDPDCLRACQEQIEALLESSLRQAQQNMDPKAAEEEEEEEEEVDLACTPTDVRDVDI
CDK7/CyclinH/MAT1, sequence (P50613 whole entry): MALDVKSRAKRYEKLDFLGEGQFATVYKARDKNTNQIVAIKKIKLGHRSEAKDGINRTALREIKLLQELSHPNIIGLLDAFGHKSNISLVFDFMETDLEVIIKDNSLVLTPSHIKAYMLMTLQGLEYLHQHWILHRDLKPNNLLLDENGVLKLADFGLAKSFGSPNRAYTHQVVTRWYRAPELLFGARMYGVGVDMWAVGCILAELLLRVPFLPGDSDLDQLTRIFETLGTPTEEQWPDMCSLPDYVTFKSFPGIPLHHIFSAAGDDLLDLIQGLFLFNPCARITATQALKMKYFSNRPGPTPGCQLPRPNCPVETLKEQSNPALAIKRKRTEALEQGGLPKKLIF
CDK7/CyclinH/MAT1, sequence (P51946 whole entry partner): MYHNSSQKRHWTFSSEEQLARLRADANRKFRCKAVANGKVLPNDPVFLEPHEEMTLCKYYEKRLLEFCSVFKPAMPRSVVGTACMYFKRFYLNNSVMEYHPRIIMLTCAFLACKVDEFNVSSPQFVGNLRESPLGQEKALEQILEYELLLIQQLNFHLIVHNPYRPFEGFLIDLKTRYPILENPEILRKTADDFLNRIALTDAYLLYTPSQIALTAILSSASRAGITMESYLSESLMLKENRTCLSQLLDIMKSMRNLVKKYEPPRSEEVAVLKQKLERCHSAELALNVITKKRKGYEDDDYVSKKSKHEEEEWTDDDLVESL
CDK7/CyclinH/MAT1, sequence (P51948 whole entry partner): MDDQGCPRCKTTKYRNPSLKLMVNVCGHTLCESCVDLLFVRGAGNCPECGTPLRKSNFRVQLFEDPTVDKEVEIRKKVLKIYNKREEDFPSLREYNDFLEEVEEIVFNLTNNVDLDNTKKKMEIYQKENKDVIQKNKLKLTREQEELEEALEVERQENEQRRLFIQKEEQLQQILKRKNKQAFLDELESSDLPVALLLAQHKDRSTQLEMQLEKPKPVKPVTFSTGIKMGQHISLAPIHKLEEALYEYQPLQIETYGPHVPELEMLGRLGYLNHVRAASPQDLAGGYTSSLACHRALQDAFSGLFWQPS
CDK9/CyclinT1, sequence (P50750 whole entry): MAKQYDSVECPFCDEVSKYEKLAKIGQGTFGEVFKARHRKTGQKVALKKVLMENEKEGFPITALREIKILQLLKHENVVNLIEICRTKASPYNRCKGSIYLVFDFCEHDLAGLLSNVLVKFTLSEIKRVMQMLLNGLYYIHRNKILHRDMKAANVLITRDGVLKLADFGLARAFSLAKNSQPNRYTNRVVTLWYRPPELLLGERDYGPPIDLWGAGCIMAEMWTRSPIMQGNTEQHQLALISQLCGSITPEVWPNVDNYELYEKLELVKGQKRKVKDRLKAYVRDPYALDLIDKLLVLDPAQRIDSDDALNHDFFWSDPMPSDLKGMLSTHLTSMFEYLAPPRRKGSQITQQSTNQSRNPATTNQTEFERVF
CDK9/CyclinT1, sequence (O60563 whole entry partner): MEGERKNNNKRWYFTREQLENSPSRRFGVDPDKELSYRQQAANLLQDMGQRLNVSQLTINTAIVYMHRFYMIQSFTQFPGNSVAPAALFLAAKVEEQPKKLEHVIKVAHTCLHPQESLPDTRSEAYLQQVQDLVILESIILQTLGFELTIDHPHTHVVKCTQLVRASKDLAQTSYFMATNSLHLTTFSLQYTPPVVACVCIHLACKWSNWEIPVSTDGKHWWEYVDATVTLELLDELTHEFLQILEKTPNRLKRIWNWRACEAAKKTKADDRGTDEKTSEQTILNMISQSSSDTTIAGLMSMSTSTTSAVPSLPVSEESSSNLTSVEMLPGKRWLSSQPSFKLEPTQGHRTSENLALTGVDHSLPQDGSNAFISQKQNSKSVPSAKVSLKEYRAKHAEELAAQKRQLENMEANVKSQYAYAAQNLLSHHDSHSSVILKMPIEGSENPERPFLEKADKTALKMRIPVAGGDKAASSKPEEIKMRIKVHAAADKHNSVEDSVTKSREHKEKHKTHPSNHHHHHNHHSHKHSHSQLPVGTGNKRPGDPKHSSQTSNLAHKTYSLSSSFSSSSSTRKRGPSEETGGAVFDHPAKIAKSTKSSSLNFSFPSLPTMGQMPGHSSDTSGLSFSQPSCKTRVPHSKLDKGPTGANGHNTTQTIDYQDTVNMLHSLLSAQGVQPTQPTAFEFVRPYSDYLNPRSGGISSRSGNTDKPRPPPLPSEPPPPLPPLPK
CDK6/CyclinD1, sequence (Q00534 whole entry): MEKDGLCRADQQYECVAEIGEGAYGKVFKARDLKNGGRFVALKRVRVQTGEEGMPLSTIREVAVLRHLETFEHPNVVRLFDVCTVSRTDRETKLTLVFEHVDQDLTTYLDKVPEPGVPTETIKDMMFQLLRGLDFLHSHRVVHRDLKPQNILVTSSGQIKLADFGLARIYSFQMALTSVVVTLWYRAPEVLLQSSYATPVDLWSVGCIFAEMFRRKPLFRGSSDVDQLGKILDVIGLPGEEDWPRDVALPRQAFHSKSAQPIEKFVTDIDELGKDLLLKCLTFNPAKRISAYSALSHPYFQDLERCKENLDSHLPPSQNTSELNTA
CDK6/CyclinD1, sequence (P24385 whole entry partner): as the sequence (P24385 whole entry partner) above
CDK1/CyclinB, sequence (P06493 whole entry): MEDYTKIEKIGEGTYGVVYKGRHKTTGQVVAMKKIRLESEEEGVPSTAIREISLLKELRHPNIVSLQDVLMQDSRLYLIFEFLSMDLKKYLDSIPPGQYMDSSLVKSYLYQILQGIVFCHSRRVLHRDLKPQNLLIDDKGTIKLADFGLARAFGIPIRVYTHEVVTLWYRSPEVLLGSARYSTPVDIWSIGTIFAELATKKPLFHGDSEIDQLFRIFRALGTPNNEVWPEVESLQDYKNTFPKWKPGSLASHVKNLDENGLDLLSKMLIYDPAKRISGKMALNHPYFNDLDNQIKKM
CDK1/CyclinB, sequence (P14635 whole entry partner): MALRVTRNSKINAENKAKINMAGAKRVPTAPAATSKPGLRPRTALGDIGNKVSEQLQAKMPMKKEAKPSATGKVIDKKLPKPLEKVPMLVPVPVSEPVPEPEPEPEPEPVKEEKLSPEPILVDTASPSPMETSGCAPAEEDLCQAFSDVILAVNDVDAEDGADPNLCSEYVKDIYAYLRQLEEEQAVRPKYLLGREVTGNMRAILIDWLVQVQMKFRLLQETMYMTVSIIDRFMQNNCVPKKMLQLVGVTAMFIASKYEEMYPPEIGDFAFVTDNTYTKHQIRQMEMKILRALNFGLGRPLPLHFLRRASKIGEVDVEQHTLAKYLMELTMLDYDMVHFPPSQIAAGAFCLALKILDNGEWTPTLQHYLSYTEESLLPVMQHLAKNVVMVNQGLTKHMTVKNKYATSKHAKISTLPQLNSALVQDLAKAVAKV

Consider `CNS(=O)(=O)c1ccc(Nc2ncc(C(F)(F)F)c(OC3CCCC3O)n2)cc1` (single isomer, unassigned) [Example 105a], for which the IC50 on CDK2/CyclinE1 was less than 10 nM; at CDK1/CyclinB, 10 to 100 nM; on CDK4/Cyclin D1, 100 to 1000 nM; at CDK6/CyclinD1 it was 100 to 1000 nM; on CDK7/CyclinH/MAT1, 100 to 1000 nM; at CDK9/CyclinT1, 100 to 1000 nM.
For `CC(C)NS(=O)(=O)c1ccc(Nc2ncc(C(F)(F)F)c(OC3CCCC3O)n2)cc1` (single isomer, unassigned) [Example 106a], the IC50 at CDK2/CyclinE1 is less than 10 nM; at CDK1/CyclinB, less than 10 nM; on CDK4/Cyclin D1 it was 10 to 100 nM; on CDK6/CyclinD1, 100 to 1000 nM; on CDK7/CyclinH/MAT1, 100 to 1000 nM; at CDK9/CyclinT1, 10 to 100 nM.
For `O=S(=O)(NC1CC1)c1ccc(Nc2ncc(C(F)(F)F)c(OC3CCCC3O)n2)cc1` (single isomer, unassigned) [Example 107a], the IC50 was less than 10 nM on CDK2/CyclinE1; 10 to 100 nM on CDK1/CyclinB; 100 to 1000 nM at CDK4/Cyclin D1; 100 to 1000 nM at CDK6/CyclinD1; 100 to 1000 nM on CDK7/CyclinH/MAT1; 100 to 1000 nM at CDK9/CyclinT1.
`[2H]C([2H])([2H])NS(=O)(=O)c1ccc(Nc2ncc(C(F)(F)F)c(OC3CCCC3O)n2)cc1` (single isomer, unassigned) [Example 109a]: the IC50 at CDK2/CyclinE1 was less than 10 nM; on CDK1/CyclinB, 10 to 100 nM; on CDK4/Cyclin D1, 100 to 1000 nM; at CDK6/CyclinD1, 100 to 1000 nM; on CDK7/CyclinH/MAT1, 100 to 1000 nM; at CDK9/CyclinT1, 100 to 1000 nM.
Turning to `[2H]C1([2H])CC(O)C(Oc2nc(Nc3ccc(S(=O)(=O)NC([2H])([2H])[2H])cc3)ncc2C(F)(F)F)C1` (single isomer, unassigned) [Example 110a], the IC50 was less than 10 nM on CDK2/CyclinE1; 10 to 100 nM at CDK1/CyclinB; 100 to 1000 nM at CDK4/Cyclin D1; 10 to 100 nM at CDK6/CyclinD1; 100 to 1000 nM at CDK7/CyclinH/MAT1; 100 to 1000 nM on CDK9/CyclinT1.
Consider `NS(=O)(=O)c1ccc(Nc2ncc(C(F)(F)F)c(OC3CCCCC3O)n2)cc1` (single isomer, unassigned) [Example 111b], for which the IC50 on CDK2/CyclinE1 was less than 10 nM; at CDK1/CyclinB, less than 10 nM; at CDK4/Cyclin D1, 10 to 100 nM; at CDK6/CyclinD1, 10 to 100 nM; at CDK7/CyclinH/MAT1, 100 to 1000 nM; at CDK9/CyclinT1 it was 10 to 100 nM.
For `CC1CCCC(O)C1Oc1nc(Nc2ccc(S(N)(=O)=O)cc2)ncc1C(F)(F)F` (single isomer, unassigned) [Example 112a], the IC50 on CDK2/CyclinE1 is less than 10 nM; at CDK1/CyclinB it was 10 to 100 nM; on CDK4/Cyclin D1, 100 to 1000 nM; on CDK6/CyclinD1 it was 100 to 1000 nM; at CDK7/CyclinH/MAT1 it was no less than 1000 nM; on CDK9/CyclinT1, 100 to 1000 nM.
Consider `NS(=O)(=O)c1ccc(Nc2ncc(C(F)(F)F)c(OC3CCOCC3O)n2)cc1` (single isomer, unassigned) [Example 114a], for which the IC50 on CDK2/CyclinE1 was less than 10 nM; at CDK1/CyclinB, 10 to 100 nM; on CDK4/Cyclin D1, 100 to 1000 nM; at CDK6/CyclinD1, 100 to 1000 nM; at CDK7/CyclinH/MAT1, 100 to 1000 nM; at CDK9/CyclinT1, 10 to 100 nM.
Consider `CNS(=O)(=O)c1ccc(Nc2ncc(C(F)(F)F)c(OC3CCOCC3O)n2)cc1` (single isomer, unassigned) [Example 116a], for which the IC50 is less than 10 nM on CDK2/CyclinE1; 10 to 100 nM on CDK1/CyclinB; 100 to 1000 nM on CDK4/Cyclin D1; 100 to 1000 nM at CDK6/CyclinD1; 100 to 1000 nM on CDK7/CyclinH/MAT1; 100 to 1000 nM at CDK9/CyclinT1.
In the case of `[2H]C([2H])([2H])NS(=O)(=O)c1ccc(Nc2ncc(C(F)(F)F)c(OC3COCCC3O)n2)cc1` (single isomer, unassigned) [Example 117a], the IC50 was less than 10 nM on CDK2/CyclinE1; 10 to 100 nM on CDK1/CyclinB; 100 to 1000 nM on CDK4/Cyclin D1; 100 to 1000 nM at CDK6/CyclinD1; 100 to 1000 nM at CDK7/CyclinH/MAT1; 100 to 1000 nM at CDK9/CyclinT1.
On to `CS(=O)(=O)N1CCC(Nc2ncc(C(F)(F)F)c(OC3CCCCC3O)n2)CC1` (single isomer, unassigned) [Example 120a], for which the IC50 on CDK2/CyclinE1 was less than 10 nM; on CDK1/CyclinB, 10 to 100 nM; on CDK4/Cyclin D1, 10 to 100 nM; on CDK6/CyclinD1, 10 to 100 nM; at CDK7/CyclinH/MAT1, 10 to 100 nM; on CDK9/CyclinT1, 100 to 1000 nM.
With `CNS(=O)(=O)N1CCC(Nc2ncc(C(F)(F)F)c(OC3CCCCCC3O)n2)CC1` (single isomer, unassigned) [Example 123b], the IC50 on CDK2/CyclinE1 was less than 10 nM; on CDK1/CyclinB, 10 to 100 nM; on CDK4/Cyclin D1 it was 10 to 100 nM; at CDK6/CyclinD1, 10 to 100 nM; at CDK7/CyclinH/MAT1 it was 100 to 1000 nM; on CDK9/CyclinT1 it was 100 to 1000 nM.
In the case of `CC1(O)COCCC1Oc1nc(NC2CCN(S(C)(=O)=O)CC2)ncc1C(F)(F)F` (single isomer, unassigned) [Example 124a], the IC50 at CDK2/CyclinE1 was less than 10 nM; at CDK1/CyclinB, 10 to 100 nM; at CDK4/Cyclin D1, 10 to 100 nM; on CDK6/CyclinD1 it was 10 to 100 nM; at CDK7/CyclinH/MAT1, less than 10 nM; on CDK9/CyclinT1, 10 to 100 nM.
In the case of `Cn1cc(S(=O)(=O)N2CCC(Nc3ncc(C(F)(F)F)c(OC4CCOCC4(C)O)n3)CC2)cn1` (single isomer, unassigned) [Example 125a], the IC50 at CDK2/CyclinE1 is less than 10 nM; at CDK1/CyclinB, less than 10 nM; at CDK4/Cyclin D1 it was less than 10 nM; on CDK6/CyclinD1, less than 10 nM; at CDK7/CyclinH/MAT1, less than 10 nM; on CDK9/CyclinT1, 10 to 100 nM.
For the molecule `O=S(=O)(NC1CCOCC1)c1ccc(Nc2ncc(Cl)c(O[C@@H]3CCC[C@@H]3O)n2)cc1` (single isomer, unassigned) [Example 130a, cis-4-((5-chloro-4-((2-hydroxycyclopentyl)oxy)pyrimidin-2-yl)amino)-N-(tetrahydro-2H-pyran-4-yl)benzenesulfonamide], the IC50 is less than 10 nM at CDK2/CyclinE1; 10 to 100 nM at CDK1/CyclinB; 100 to 1000 nM on CDK4/Cyclin D1; 100 to 1000 nM at CDK6/CyclinD1; 100 to 1000 nM at CDK7/CyclinH/MAT1; 100 to 1000 nM at CDK9/CyclinT1.
With `CC1(NS(=O)(=O)c2ccc(Nc3ncc(Br)c(O[C@@H]4CCC[C@@H]4O)n3)cc2)COC1` (single isomer, unassigned) [Example 131a, cis-4-((5-bromo-4-((2-hydroxycyclopentyl)oxy)pyrimidin-2-yl)amino)-N-(3-methyloxetan-3-yl)benzenesulfonamide], the IC50 at CDK2/CyclinE1 was less than 10 nM; on CDK1/CyclinB it was 10 to 100 nM; at CDK4/Cyclin D1, 100 to 1000 nM; at CDK6/CyclinD1, 100 to 1000 nM; on CDK7/CyclinH/MAT1, 100 to 1000 nM; on CDK9/CyclinT1, 100 to 1000 nM.
As for `Cc1cnc(Nc2ccc(S(N)(=O)=O)cc2)nc1O[C@@H]1CCC[C@@H]1O` (single isomer, unassigned) [Example 132a, cis-4-((4-((2-hydroxycyclopentyl)oxy)-5-methylpyrimidin-2-yl)amino)benzenesulfonamide], the IC50 at CDK2/CyclinE1 is less than 10 nM; at CDK1/CyclinB it was 100 to 1000 nM; on CDK4/Cyclin D1, 100 to 1000 nM; at CDK6/CyclinD1 it was 100 to 1000 nM; at CDK7/CyclinH/MAT1, 100 to 1000 nM; at CDK9/CyclinT1, 100 to 1000 nM.
On to `CCc1cnc(Nc2ccc(S(N)(=O)=O)cc2)nc1O[C@@H]1CCC[C@@H]1O` (single isomer, unassigned) [Example 133a, cis-4-((5-ethyl-4-((2-hydroxycyclopentyl)oxy)pyrimidin-2-yl)amino)benzenesulfonamide], for which the IC50 at CDK2/CyclinE1 was less than 10 nM; at CDK1/CyclinB it was 10 to 100 nM; on CDK4/Cyclin D1, 100 to 1000 nM; on CDK6/CyclinD1, 10 to 100 nM; on CDK7/CyclinH/MAT1 it was 100 to 1000 nM; on CDK9/CyclinT1, 10 to 100 nM.
On to `CC(C)NS(=O)(=O)c1ccc(Nc2ncc(C3CC3)c(O[C@@H]3CCC[C@@H]3O)n2)cc1` (single isomer, unassigned) [Example 134a, cis-4-((5-cyclopropyl-4-((2-hydroxycyclopentyl)oxy)pyrimidin-2-yl)amino)-N-isopropylbenzenesulfonamide], for which the IC50 was less than 10 nM on CDK2/CyclinE1; 10 to 100 nM at CDK1/CyclinB; 100 to 1000 nM on CDK4/Cyclin D1; 100 to 1000 nM at CDK6/CyclinD1; 100 to 1000 nM at CDK7/CyclinH/MAT1; 100 to 1000 nM at CDK9/CyclinT1.
Regarding `[2H]C([2H])([2H])NS(=O)(=O)c1ccc(Nc2ncc(C(=C)F)c(O[C@@H]3CCC[C@@H]3O)n2)cc1` (single isomer, unassigned) [Example 135a, cis-4-((5-(1-fluorovinyl)-4-((2-hydroxycyclopentyl)oxy)pyrimidin-2-yl)amino)-N-(methyl-d3)benzenesulfonamide], the IC50 on CDK2/CyclinE1 is less than 10 nM; at CDK1/CyclinB, 10 to 100 nM; at CDK4/Cyclin D1, 100 to 1000 nM; at CDK6/CyclinD1 it was 100 to 1000 nM; at CDK7/CyclinH/MAT1 it was 100 to 1000 nM; at CDK9/CyclinT1 it was 100 to 1000 nM.
On to `CNS(=O)(=O)c1ccc(Nc2ncc(Cl)c(OC3CCCC3O)n2)cc1` (single isomer, unassigned) [Example 137a], for which the IC50 on CDK2/CyclinE1 was less than 10 nM; at CDK1/CyclinB, 10 to 100 nM; on CDK4/Cyclin D1 it was 100 to 1000 nM; on CDK6/CyclinD1, 10 to 100 nM; on CDK7/CyclinH/MAT1 it was 100 to 1000 nM; on CDK9/CyclinT1 it was 100 to 1000 nM.
`CC(C)NS(=O)(=O)c1ccc(Nc2ncc(Cl)c(OC3CCCC3O)n2)cc1` (single isomer, unassigned) [Example 138a]: the IC50 on CDK2/CyclinE1 is less than 10 nM; at CDK1/CyclinB, 10 to 100 nM; at CDK4/Cyclin D1 it was 100 to 1000 nM; at CDK6/CyclinD1, 100 to 1000 nM; at CDK7/CyclinH/MAT1, 100 to 1000 nM; on CDK9/CyclinT1, 100 to 1000 nM.
With `CN1CCC(NS(=O)(=O)c2ccc(Nc3ncc(Cl)c(OC4CCCC4O)n3)cc2)CC1` (single isomer, unassigned) [Example 139a], the IC50 is less than 10 nM at CDK2/CyclinE1; 10 to 100 nM on CDK1/CyclinB; 100 to 1000 nM at CDK4/Cyclin D1; 10 to 100 nM at CDK6/CyclinD1; 100 to 1000 nM at CDK7/CyclinH/MAT1; 100 to 1000 nM at CDK9/CyclinT1.
